Where a name gives a salt, the structure may show the parent alone.
How the values were obtained:
[1] = tested on: SF268 (glioma) cancer cell line; experiment: MTT assay, inhibition of cell proliferation, SF268; type: cell-based; details: SF268, 72 hours
Experimental: (§1) The compounds of the invention were tested for their inhibition potential of cell proliferation. MCF7 (breast) and SF268 (glioma) cancer cell lines were incubated with different concentrations of the compounds and their viability was assessed using an MTT (3-(4,5-dimethylthiazol-2-yl)-2,5-diphenyltetrazolium bromide) assay. The MTT assay is well known in the art (see for example Slater et al., Biochim. Biophys. Acta 77 (1963) 383). The cells were incubated with a given inhibitor for 72 hours and assayed.

[2] = tested on: MCF7 (breast) cancer cell line; experiment: MTT assay, inhibition of cell proliferation, MCF7; type: cell-based; details: MCF7, 72 hours
Experimental: as §1

[3] = molecular target: T1, Pyruvate kinase isolated from rabbit muscle (Oryctolagus cuniculus, UniProt P11974); experiment: Inhibition of pyruvate kinase (indirect assay quantifying ADP production); type: biochemical
T1 construct: Pyruvate kinase isolated from rabbit muscle; purchased Sigma-Aldrich; host or cells: rabbit muscle (tissue-derived enzyme)
Experimental: The compounds E-3-chlorophosphoenolpyruvate ditriethyl-ammonium salt (ECPDAT), Z-3-chlorophosphoenolpyruvate tritriethyl-ammonium salt (CPTP), phosphoenol-3-bromo-pyruvic acid mono-cyclohexyl ammonium salt (PBPA), 2-bromooxoethylphosphonic acid mono-cyclohexyl-ammonium salt (BOEPA) and 3-bromopyruvic acid (BrPyA) were tested for their efficiency at inhibiting pyruvate kinase. Pyruvate kinase isolated from rabbit muscle was purchased from Sigma-Aldrich. Pyruvate kinase was assayed indirectly by quantifying ADP production formed in the reaction ATP+pyruvate to ADP+phosphoenolpyruvate. Inhibitors were added to the reaction mixture immediately before the reaction was started by the addition of ATP.

T1 sequence (P11974 whole entry): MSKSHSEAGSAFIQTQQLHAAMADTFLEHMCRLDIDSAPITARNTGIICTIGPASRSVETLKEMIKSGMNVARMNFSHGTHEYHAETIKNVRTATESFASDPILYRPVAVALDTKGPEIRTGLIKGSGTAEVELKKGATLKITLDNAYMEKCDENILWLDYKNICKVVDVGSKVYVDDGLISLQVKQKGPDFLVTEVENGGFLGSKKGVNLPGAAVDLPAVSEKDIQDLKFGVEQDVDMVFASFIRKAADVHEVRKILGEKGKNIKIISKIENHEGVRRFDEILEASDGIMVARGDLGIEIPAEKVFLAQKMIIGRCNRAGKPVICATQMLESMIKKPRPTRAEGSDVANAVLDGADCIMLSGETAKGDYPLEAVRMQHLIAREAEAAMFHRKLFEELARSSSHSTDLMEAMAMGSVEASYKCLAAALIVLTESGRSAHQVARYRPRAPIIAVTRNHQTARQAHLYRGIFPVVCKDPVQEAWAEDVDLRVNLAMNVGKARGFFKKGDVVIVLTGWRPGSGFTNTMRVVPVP

O=C(O)C(=CBr)OP(=O)(O)O [PBPA, phosphoenol-3-bromo-pyruvic acid mono-cyclohexyl ammonium salt]
Inhibition of cell proliferation [1]: inhibited cell proliferation | % (A-Blank relative to control) ([1]; 10 uM): 100.1% | A-Blank (Average-Blank) O.D. at 570 nm ([1]; 10 uM): 0.6935 O.D. | Average O.D. reading at 570 nm ([1]; 10 uM): 0.7798 O.D. | % (A-Blank relative to control) ([1]; 25 uM): 102.02% | A-Blank (Average-Blank) O.D. at 570 nm ([1]; 25 uM): 0.7068 O.D. | Average O.D. reading at 570 nm ([1]; 25 uM): 0.793 O.D. | % (A-Blank relative to control) ([1]; 50 uM): 99.567% | A-Blank (Average-Blank) O.D. at 570 nm ([1]; 50 uM): 0.6898 O.D. | Average O.D. reading at 570 nm ([1]; 50 uM): 0.776 O.D. | % (A-Blank relative to control) ([1]; 75 uM): 100.11% | A-Blank (Average-Blank) O.D. at 570 nm ([1]; 75 uM): 0.6935 O.D. | Average O.D. reading at 570 nm ([1]; 75 uM): 0.7798 O.D. | % (A-Blank relative to control) ([1]; 100 uM): 95.453% | A-Blank (Average-Blank) O.D. at 570 nm ([1]; 100 uM): 0.6613 O.D. | Average O.D. reading at 570 nm ([1]; 100 uM): 0.7475 O.D. | % (A-Blank relative to control) ([1]; 200 uM): 90.978% | A-Blank (Average-Blank) O.D. at 570 nm ([1]; 200 uM): 0.6303 O.D. | Average O.D. reading at 570 nm ([1]; 200 uM): 0.7165 O.D. | % (A-Blank relative to control) ([1]; 300 uM): 79.7546% | A-Blank (Average-Blank) O.D. at 570 nm ([1]; 300 uM): 0.5525 O.D. | Average O.D. reading at 570 nm ([1]; 300 uM): 0.6388 O.D. | % (A-Blank relative to control) ([1]; 500 uM): 74.49% | A-Blank (Average-Blank) O.D. at 570 nm ([1]; 500 uM): 0.516 O.D. | Average O.D. reading at 570 nm ([1]; 500 uM): 0.6022 O.D. | Inhibition of cell proliferation [2]: inhibited cell proliferation | % (A-Blank relative to control) ([2]; 10 uM): 94.23% | A-Blank (Average-Blank) O.D. at 570 nm ([2]; 10 uM): 0.7632 O.D. | Average O.D. reading at 570 nm ([2]; 10 uM): 0.846 O.D. | % (A-Blank relative to control) ([2]; 25 uM): 97.16% | A-Blank (Average-Blank) O.D. at 570 nm ([2]; 25 uM): 0.787 O.D. | Average O.D. reading at 570 nm ([2]; 25 uM): 0.8698 O.D. | % (A-Blank relative to control) ([2]; 50 uM): 97.901% | A-Blank (Average-Blank) O.D. at 570 nm ([2]; 50 uM): 0.793 O.D. | Average O.D. reading at 570 nm ([2]; 50 uM): 0.8758 O.D. | % (A-Blank relative to control) ([2]; 75 uM): 98.827% | A-Blank (Average-Blank) O.D. at 570 nm ([2]; 75 uM): 0.8005 O.D. | Average O.D. reading at 570 nm ([2]; 75 uM): 0.8833 O.D. | % (A-Blank relative to control) ([2]; 100 uM): 95.71% | A-Blank (Average-Blank) O.D. at 570 nm ([2]; 100 uM): 0.7753 O.D. | Average O.D. reading at 570 nm ([2]; 100 uM): 0.858 O.D. | % (A-Blank relative to control) ([2]; 200 uM): 93.333% | A-Blank (Average-Blank) O.D. at 570 nm ([2]; 200 uM): 0.756 O.D. | Average O.D. reading at 570 nm ([2]; 200 uM): 0.8388 O.D. | % (A-Blank relative to control) ([2]; 300 uM): 84.9074% | A-Blank (Average-Blank) O.D. at 570 nm ([2]; 300 uM): 0.6877 O.D. | Average O.D. reading at 570 nm ([2]; 300 uM): 0.7705 O.D. | % (A-Blank relative to control) ([2]; 500 uM): 75.31% | A-Blank (Average-Blank) O.D. at 570 nm ([2]; 500 uM): 0.61 O.D. | Average O.D. reading at 570 nm ([2]; 500 uM): 0.6927 O.D. | Inhibition of pyruvate kinase compared with BrPyA [3]: inhibited pyruvate kinase at lower concentrations than BrPyA | inhibition at 0.1 µM ([3]; Concentration 0.1 μM, read-out: % Inhibition): 0% | inhibition at 1 µM ([3]; Concentration 1 μM, read-out: % Inhibition): 13.8% | inhibition at 10 µM ([3]; Concentration 10 μM, read-out: % Inhibition): 28.6%

From patent US8026278B2, “Inhibitors of pyruvate kinase as therapeutic agents for cancer” (priority 2005, dated 2011)
